Patent publication US12589088B2, “Compositions and methods for treating cancer with andrographolide and melatonin combination therapy” (University of Maryland, Baltimore, priority 2020, dated 2026)
Like-named read-outs stand apart in the source and are kept apart here. Values belong to the compound of their own block, whether it stands above or below them.

What was measured:
IRE-1, ATF6, CHOP mRNA = assay: qRT-PCR of ER stress associated genes in HT-29 and HCT-15 cells; format: cell-based, human; conditions: 5-FU at IC50 dose; for CHOP mRNA expression: AGP 9.3 μM, MLT 0.18 mM alone or combined, 48 h, both cell lines
Description: (§1) FIG. 5. AGP and MLT synergistically induce ER stress-related molecules. HT-29 and HCT-15 cells were treated with AGP, MLT, AGP+MLT, and 5-FU for 48 h as indicated in the methodology section. Transcriptional level of expression of ER stress associated genes was determined by qRT-PCR for A. IRE-1, B. ATF6, and C. CHOP. Bar graphs show quantitative results normalized to GAPDH mRNA levels. Results are from three independent experiments. D. Treated and untreated cells were lysed, and protein expression was determined by immunoblotting for IRE-1, ATF6, phospho-PERK, and GAPDH.
(§2) Gene expression was evaluated as previously described (Banerjee et al., Oncotarget, (2016), 7(27):41432-41444). Primer sequences are listed in Supplementary Table 1. Relative gene expression changes were calculated using the 2^−ΔΔCT method, and expression normalization was accomplished using the housekeeping gene, GAPDH.

[1] = tested on: IRE-1, ATF6, phospho-PERK protein; assay: Immunoblotting of ER stress markers in HT-29 and HCT-15 cell lysates; format: cell-based, human; conditions: 5-FU treatment group; except IRE-1 protein level in HT-29
Description: as §1
(§3) Immunoblotting was performed as previously described (Banerjee, Basu, et al. 2016). The primary antibodies used were against ATF6 (#MA5-16172; Thermo Fisher Scientific) phospho-PERK (Thr 981) (#sc-32577; Santa Cruz biotechnology), IRE-1 (#3294S; Cell Signaling), phospho-VEGFReceptor1/Flt-1 (Y1213) (#AF4170; R&D systems,), total VEGFReceptor1 (R&D systems, #AF321), FoxM1 (R&D systems, #AF3975), and GAPDH (#G8795; Sigma Aldrich). Blots were incubated with HRP-conjugated secondary antibodies followed by enhanced chemiluminescence (ECL) detection. Images were captured using a Syngene G Box digital imager (Frederick, Md.) and results were quantified with densitometry as previously described (Blanchard et al. 2018).

[2] = tested on: VEGF165, VEGF189, VEGF receptor1, VEGF Receptor2, FoxM1, PTTG1 mRNA; assay: qRT-PCR of angiogenic signaling molecules in HT-29 and HCT-15 cells; format: cell-based, human
Description: (§4) FIG. 6. AGP and MLT synergistically downregulates angiogenic signaling molecules in colon cancer cells. HT-29 (left) and HCT-15 (right) cells were analyzed for A. VEGF165, B. VEGF189, C. VEGF receptor1, D. FoxM1, E. PTTG1 mRNA expression in the presence and absence of AGP, MLT and 5-FU. F. HT-29 and HCT-15 cell lysates were subjected for protein expression as indicated. (G-H). Quantification of FoxM1 was normalized with GAPDH and (I-J). p-VEGF receptor1 was normalized with total VEGF receptor 1. Statistical significance was determined using one-way ANOVA followed Bonferroni test (*P<0.05, **P<0.01, ***P<0.001).
as §2

[3] = tested on: FoxM1 and phospho-VEGF receptor1 protein; assay: Immunoblotting of angiogenic markers in HT-29 and HCT-15 cell lysates; format: cell-based, human; conditions: vs untreated and single compound groups
Description: as §4, §3

HT-29 = conditions: HT-29, previous studies (Lim et al. 2007); read-out: IC50 dose of 5-FU; cited from earlier work
HCT-15 = conditions: HCT-15, previous studies (Lim et al. 2007); read-out: IC50 dose of 5-FU; cited from earlier work
[4] = cited from earlier work
HCT-15 cells = assay: MTT cell viability assay with CompuSyn / Chou-Talalay combination index analysis; format: cell-based, human; conditions: for IC50: Homo sapiens, HCT-15, 48 h, median-effect plot, combination = total dose at 1:20, read-out: Dm values for HCT-15
Description: (§5) Cell cytotoxicity in the presence or absence of AGP and MLT was assessed using the MTT (Sigma Aldrich) assay as previously described (Banerjee et al., Helicobacter, (2016), 21(5):395-404). Cells (1×10^4) were plated in phenol-free complete RPMI media and incubated at 37° C. under 5% CO2 for 24 h. Cells were then simultaneously treated in quadruplicate wells with AGP (0-150 μM), MLT (0-3000 μM) or vehicle controls (0.1% DMSO). The media was replaced with MTT solution for each plate at its respective timepoint (either 24, 48, 72 h) followed by the addition of DMSO to dissolve the formazan crystals. Absorbance at 570 nm was determined using a microplate reader (Model 550, Bio-Rad, USA). The percent cell viability relative to the vehicle control was calculated using the following equation:
(§6) [formula] The IC50 value and slope (m) of the concentration-response curves were calculated using the CompuSyn software developed by Chou and Martin (Tun et al., Mar Drugs, (2019), 17(9): 10.3390/md17090536). Colospheroid Formation Assay
(§7) To determine an upper bound on both the individual doses drugs, we measured maximum cell death (near 0% cell viability). AGP achieved this level at 150 μM and MLT at 3 mM for 48 h (Banerjee et al., Helicobacter, (2016), 21(5):395-404, Reiter et al., Int J Mol Sci, (2017), 18(4), doi: 10.3390/ijms18040843). […] Serial dilution was conducted up to 6 times to anchor the observed cell deaths along the dose range.
(§8) To understand the Combination Index (CI), we first defined the fraction affected (Fa) and its counterpart, fraction unaffected (Fu). In our case, the percentage of viable cells determines the […], and 100—percentage of viable cells determines the Fu. The dose effect curve provides an overview of Fa vs. Dose (FIG. 2A and FIG. 2B). As expected, the individual AGP and MLT dose effect curves cradle the combinational dose effect curve below and above, respectively. This means that the total combinational dose to achieve the same Fa is greater than AGP's dose and less than MLT's dose. However, due to the 1:20 combinational ratio, we require less AGP and MLT absolutely.
(§9) [formula] The ratio between Fa and Fu aids in understanding when a given dose achieves the IC50 value. At 50% cell viability,
(§10) [formula] To linearly scale the datapoints, we also took the log of Dose. In this manner, the x intercept of the Median-Effect plot—also known as Dm—precisely determines the dose required to achieve the IC50 value. Immunoblotting

HT-29 cells = assay: as above; format: cell-based, human; conditions: for IC50: Homo sapiens, HT-29, 48 h, median-effect plot, combination = total dose at 1:20, read-out: Dm values for HT-29
Description: as §5, §6, §7, §8, §9, §10

HT-29 and HCT-15 cells = assay: MTT cell viability assay, one value given for both cell lines; format: cell-based, human; conditions: for IC50: Homo sapiens
Description: as §5, §6, §7, §8, §9, §10

[5] = molecular target: Ki-67 in patient derived organoids (PDOD); assay: Ki-67 immunofluorescence in patient derived organoids; format: cell-based, human; conditions: AGP 15 μM, MLT 0.5 mM or both, 48 h; vs untreated
Description: Organoid cells were generated from stage 3 metastatic cancer tissue and cultured as previously described (Blanchard et al., Cell Physiol Biochem, (2018), 48(3):1259-1273; Banerjee et al., Gastroenterology and Hepatology International Journal, (2017), 2(2):1-2; Blanchard et al., Cancers (Basel), (2019), 11(2)). The cultures were passaged when the aggregates reached a diameter of approximately 800 μm. Organoids were treated with 15 μM AGP, 0.5 mM MLT, or both for 48 h. Treated and untreated organoids were subjected to morphological analysis and immunofluorescence for Ki67 expression.
Patient derived organoids were grown in 1:1 mixture of Matrigel and advanced DMEM:F12 (Life Technologies) supplemented with 1× penicillin/streptomycin, lx glutamine, 1×N2, 1×B27, 1 mM N-acetyl-L-cysteine, 20 ng/ml fibroblast growth factor and 50 ng/ml epidermal growth factor at 37° C. on a 4-chambered glass slide. […]
Fluorescence microscopy and colony counting were performed using an inverted fluorescence microscope (Olympus IX-71, Pennsylvania, USA). […] Fluorescence intensity was quantified using ImageJ software version 1.39 (NIH). RGB composite images from control and treated groups were created using Axion Vision rel, 4.6 and analyzed. […]

Cyclin B1, Prx, Trx = conditions: T84 and Colo 205 cell lysates, earlier publication; cited from earlier work
T84 and Colo 205 = conditions: cited from earlier work
CRC = conditions: previous studies; read-out: IC50 value of MLT for CRC; cited from earlier work

SMILES: O=c1[nH]cc(F)c(=O)[nH]1 [5-FU, 5-Fluorouracil]
ATF6 mRNA expression (IRE-1, ATF6, CHOP mRNA; HCT-15): induced significant
IRE-1 mRNA expression (IRE-1, ATF6, CHOP mRNA; HT-29 and HCT-15): induced significant
CHOP mRNA expression (IRE-1, ATF6, CHOP mRNA): attenuated
ER stress marker protein expression [1]: No significant changes
FoxM1 mRNA level [2]: no more significant reduction
PTTG1 mRNA level [2]: no more significant reduction
mVEGF165 level ([2]; both cell lines, vs untreated): increased
mVEGF189 level ([2]; both cell lines, vs untreated): increased
FoxM1 protein [3]: No further reduction
phospho-VEGF receptor1 protein [3]: No further reduction
IC50 (HT-29): 13 µM
IC50 (HCT-15): ~5 µM
overall response rate to 5-FU in adjuvant treatment ([4]; adjuvant treatment): less than 15%
overall response of 5-FU in advanced CRC ([4]; advanced CRC): about 10%

IC50 (HCT-15 cells): 26.5 µM
IC50 (HT-29 cells): 25.6 µM
IC50 (HT-29 and HCT-15 cells; 24 h (stated consistent with 48 h), read-out: IC50 value of AGP): 30 µM
IC50 (HT-29 and HCT-15 cells; AGP single dose, 48 h, read-out: IC50 values): 30 µM
Ki-67 expression [5]: greatly reduced
SMILES: C=C1CC[C@@H]2[C@](C)(CO)[C@H](O)CC[C@@]2(C)[C@@H]1C/C=C1/C(=O)OC[C@H]1O [AGP, andrographolide]
potency of AGP relative to MLT (HCT-15 cells; HCT-15, dose-effect curve): 26 fold
potency of AGP relative to MLT (HT-29 cells; HT-29, dose-effect curve): 40 fold
dose achieving maximum cell death (near 0% cell viability) (HT-29 and HCT-15 cells; 48 h): 150 µM
potency of AGP relative to MLT (basis of 1:20 ratio) (HT-29 and HCT-15 cells; from maximum cell death doses): 20 times
CHOP mRNA expression (IRE-1, ATF6, CHOP mRNA): Significant CHOP mRNA expression
Cyclin B1 expression, AGP alone (Cyclin B1, Prx, Trx): suppresses
IC50 (T84 and Colo 205; 48 h, published results, read-out: IC50 value for AGP as a single therapy): 45 µM
IC50 (T84 and Colo 205; T84 and Colo 205, previous study, read-out: IC50 value of AGP): 45 µM

IC50 (HCT-15 cells): 683 µM
IC50 (HT-29 cells): 1000 µM
IC50 (HT-29 and HCT-15 cells; MLT single dose, 48 h, read-out: IC50 values): 1000 µM
Ki-67 expression [5]: greatly reduced
SMILES: COc1ccc2[nH]cc(CCNC(C)=O)c2c1 [MLT, melatonin]
cell number at 24 h (HT-29 and HCT-15 cells; 24 h): transient increase in the cell number
dose achieving maximum cell death (near 0% cell viability) (HT-29 and HCT-15 cells; 48 h): 3000 µM
IC50 (CRC): 1000 to 2500 µM
